Results published in patent publication US20110158980A1, “METHODS TO TREAT AND SCREEN FOR AGENTS TO TREAT OBESITY” (TRUSTEES OF TUFTS COLLEGE, priority 2008, published 2011).

Test system: 3T3-L1 adipocytes
Assay: Metabolic flux analysis (stoichiometric model) of adipocyte intermediary metabolism
Assay type: cell-based
Description: 3T3-L1 preadipocytes were plated onto 24-well plates and expanded in preadipocyte growth medium consisting of DMEM supplemented with calf serum (10% v/v), penicillin and streptomycin. Medium was replenished every other day. Two days post-confluence, the cells were induced to differentiate using an adipogenic cocktail (1 μg/ml insulin, 0.5 mM isobutylmethylxanthine, and 1 μM dexamethasone) added to a basal medium (DMEM with 10% fetal bovine serum and penicillin/streptomycin). After 48 hrs, the first medium was replaced with a second induction medium consisting of the basal adipocyte medium supplemented with only insulin. […] This basal medium was replenished every other day during the remainder of the culture experiments.
A stoichiometric model of adipocyte central carbon metabolism was constructed as described previously (Si Y, Yoon J, Lee K. American journal of physiology 2007; 292:E1637-46). The model consisted of the major pathways of central carbon metabolism (Table 1). Intracellular fluxes were estimated by solving a constrained non-linear optimization problem with stoichiometric and thermodynamic constraints (Nolan R P, Fenley A P, Lee K. Metab Eng 2006; 8:30-45).

[1] = PA 10 mM, day 12 post-induction

Compound: O=C(O)Cc1ccccc1 [phenylacetate]
- Flux RXN 65 Mitochondrial exchange: 2-Oxoglutarate in, Malate out (PA 5 mM, day 12 post-induction): 36.9 ± 7.3 mmol/g-DNA/2 days
- Flux RXN 66 Mitochondrial exchange: Pi in, Malate out (PA 5 mM, day 12 post-induction): 79.9 ± 9.7 mmol/g-DNA/2 days
- Flux RXN 1 Glycolysis: Glucose + ATP = Glucose 6-P + ADP [1]: 341.0 ± 14.4 mmol/g-DNA/2 days
- Flux RXN 3 Glycolysis: Fructose 6-P + ATP = Glyceraldehyde 3-P + Glycerone-P + ADP [1]: 332.9 ± 13.7 mmol/g-DNA/2 days
- Flux RXN 4 Glycolysis: Glycerone-P = Glyceraldehyde 3-P [1]: 309.4 ± 13.0 mmol/g-DNA/2 days
- Flux RXN 5 Glycolysis: Glyceraldehyde 3-P + NAD+ + ADP + Pi = P-Enolpyruvate + ATP + H2O [1]: 650.5 ± 26.0 mmol/g-DNA/2 days
- Flux RXN 6 Glycolysis: P-Enolpyruvate + ADP + H+ = Pyruvate + ATP [1]: 725.6 ± 35.8 mmol/g-DNA/2 days
- Flux RXN 7 Glycolysis: Pyruvate + NADH + H+ = Lactate + NAD+ [1]: 427.8 ± 9.4 mmol/g-DNA/2 days
- Flux RXN 8 Pentose phosphate pathway: Glucose 6-P + 2 NADP+ + H2O = Ribulose 5-P + CO2 + 2 NADPH + 2 H+ [1]: 24.3 ± 18.5^ mmol/g-DNA/2 days
- Flux RXN 9 Pentose phosphate pathway: 3 Ribulose 5-P = 2 Fructose 6-P + Glyceraldehyde 3-P [1]: 8.1 ± 6.2^ mmol/g-DNA/2 days
- Flux RXN 10 TCA cycle (mitochondria) (PDC) [1]: 233.7 ± 25.1 mmol/g-DNA/2 days
- Flux RXN 12 TCA cycle (mitochondria) [1]: 132.2 ± 19.3 mmol/g-DNA/2 days
- Flux RXN 13 TCA cycle (mitochondria) [1]: 158.6 ± 26.1 mmol/g-DNA/2 days
- Flux RXN 14 TCA cycle (mitochondria) [1]: 169.9 ± 26.6 mmol/g-DNA/2 days
- Flux RXN 15 TCA cycle (mitochondria) [1]: 170.1 ± 27.0 mmol/g-DNA/2 days
- Flux RXN 16 TCA cycle (mitochondria) [1]: 110.2 ± 17.8 mmol/g-DNA/2 days
- Flux RXN 17 TCA cycle: Citrate + CoA + ATP = Acetyl-CoA + Oxaloacetate + ADP + Pi [1]: 75.1 ± 16.4 mmol/g-DNA/2 days
- Flux RXN 18 TCA cycle: Oxaloacetate + NADH + H+ = Malate + NAD+ [1]: 0.0 ± 0.0^ mmol/g-DNA/2 days
- Flux RXN 19 TCA cycle: Malate + NADP+ = Pyruvate + CO2 + NADPH [1]: 59.9 ± 9.2 mmol/g-DNA/2 days
- Flux RXN 20 TCA cycle: Citrate + NADP+ = 2-Oxoglutarate + CO2 + NADPH + H+ [1]: 26.4 ± 6.9 mmol/g-DNA/2 days
- Flux RXN 21 TCA cycle: Oxaloacetate + ATP = P-Enolpyruvate + CO2 + ADP [1]: 75.1 ± 16.4 mmol/g-DNA/2 days
- Flux RXN 22 Oxidative phosphorylation (NADH + 0.5 O2) [1]: 213.9 ± 89.2 mmol/g-DNA/2 days
- Flux RXN 23 Oxidative phosphorylation (FADH2 + 0.5 O2) [1]: 189.1 ± 27.3 mmol/g-DNA/2 days
- Flux RXN 24 Palmitate biosynthesis [1]: 9.4 ± 2.0 mmol/g-DNA/2 days
- Flux RXN 25 Tripalmitoylglycerol biosynthesis: Glycerone-P + 3 Palmitate to Tripalmitoylglycerol [1]: 23.5 ± 3.0 mmol/g-DNA/2 days
- Flux RXN 26 Tripalmitoylglycerol + 3 H2O = Glycerol + 3 Palmitate [1]: 20.6 ± 2.4 mmol/g-DNA/2 days
- Flux RXN 27 Tripalmitoylglycerol accumulation [1]: 2.9 ± 0.6 mmol/g-DNA/2 days
- Flux RXN 28 Metabolism of ketone bodies [1]: 7.8 ± 0.2 mmol/g-DNA/2 days
- Flux RXN 29 Metabolism of ketone bodies [1]: 0.0 ± 0.0^ mmol/g-DNA/2 days
- Flux RXN 30 Metabolism of ketone bodies (to 3-Hydroxybutyrate) [1]: 15.9 ± 0.7 mmol/g-DNA/2 days
- Flux RXN 31 Amino acid metabolism: Pyruvate + NH4+ + NADPH = Alanine [1]: 0.5 ± 0.1 mmol/g-DNA/2 days
- Flux RXN 32 Amino acid metabolism: Aspartate + NH4+ = Asparagine [1]: 2.9 ± 0.2 mmol/g-DNA/2 days
- Flux RXN 33 Amino acid metabolism: Aspartate = Oxaloacetate + NH4+ + NADH [1]: 0.0 ± 0.0^ mmol/g-DNA/2 days
- Flux RXN 34 Amino acid metabolism: Cysteine = Pyruvate + NH4+ + NADH [1]: 0.0 ± 0.0^ mmol/g-DNA/2 days
- Flux RXN 35 Amino acid metabolism: Glutamate = 2-Oxoglutarate + NH4+ + NADH [1]: 0.0 ± 0.0 mmol/g-DNA/2 days
- Flux RXN 36 Amino acid metabolism: Glutamate + NH4+ + ATP = Glutamine [1]: 0.0 ± 0.0 mmol/g-DNA/2 days
- Flux RXN 37 Amino acid metabolism: Serine + THF = Glycine [1]: 6.2 ± 0.4^ mmol/g-DNA/2 days
- Flux RXN 38 Amino acid metabolism: Histidine + THF = Glutamate + NH4+ [1]: 0.5 ± 0.1 mmol/g-DNA/2 days
- Flux RXN 39 Amino acid metabolism: Isoleucine + 2 CoA [1]: 7.5 ± 0.2 mmol/g-DNA/2 days
- Flux RXN 40 Amino acid metabolism: Leucine + CoA + CO2 + ATP [1]: 7.9 ± 0.2 mmol/g-DNA/2 days
- Flux RXN 41 Amino acid metabolism: Lysine = 2-Oxoadipate + 2 NH4+ + 3 NADH [1]: 0.0 ± 0.0^ mmol/g-DNA/2 days
- Flux RXN 42 Amino acid metabolism: 2-Oxoadipate + CoA [1]: 0.0 ± 0.0^ mmol/g-DNA/2 days
- Flux RXN 43 Amino acid metabolism: Methionine + Serine + ATP + CoA + THF [1]: 0.0 ± 0.0^ mmol/g-DNA/2 days
- Flux RXN 44 Amino acid metabolism: Phenylalanine + O2 + NADH = Tyrosine [1]: 0.1 ± 0.3^ mmol/g-DNA/2 days
- Flux RXN 45 Amino acid metabolism: Glutamate + ATP + 2 NADPH = Proline [1]: 1.5 ± 0.1 mmol/g-DNA/2 days
- Flux RXN 46 Amino acid metabolism: Serine = Pyruvate + NH4+ [1]: 0.0 ± 0.0^ mmol/g-DNA/2 days
- Flux RXN 47 Amino acid metabolism: Threonine + CoA to Glycine [1]: 0.2 ± 0.2 mmol/g-DNA/2 days
- Flux RXN 48 Amino acid metabolism: Tryptophan + 3 O2 + NADPH = 2-Oxoadipate + Alanine + CO2 + NH4+ [1]: 0.0 ± 0.0^ mmol/g-DNA/2 days
- Flux RXN 49 Amino acid metabolism: Tyrosine + 2 O2 [1]: 0.2 ± 0.5^ mmol/g-DNA/2 days
- Flux RXN 50 Amino acid metabolism: Valine + CoA [1]: 3.8 ± 0.4 mmol/g-DNA/2 days
- Flux RXN 51 Plasma exchange: Palmitate [1]: 0.8 ± 0.1 mmol/g-DNA/2 days
- Flux RXN 52 Plasma exchange: Acetoacetate [1]: 0.0 ± 0.1 mmol/g-DNA/2 days
- Flux RXN 53 Plasma exchange: Alanine [1]: 0.5 ± 0.1 mmol/g-DNA/2 days
- Flux RXN 54 Plasma exchange: Aspartate [1]: 2.9 ± 0.2 mmol/g-DNA/2 days
- Flux RXN 55 Plasma exchange: Cysteine [1]: 0.0 ± 0.0^ mmol/g-DNA/2 days
- Flux RXN 56 Plasma exchange: Glutamate [1]: 0.9 ± 0.1 mmol/g-DNA/2 days
- Flux RXN 57 Plasma exchange: Glycine [1]: 6.4 ± 0.4 mmol/g-DNA/2 days
- Flux RXN 58 Plasma exchange: Serine [1]: 6.2 ± 0.4^ mmol/g-DNA/2 days
- Flux RXN 59 Plasma exchange: Tyrosine [1]: 0.1 ± 0.2^ mmol/g-DNA/2 days
- Flux RXN 60 Plasma exchange: O2 (calculated oxygen uptake rate) [1]: 202.1 ±59.1 *^ mmol/g-DNA/2 days
- Flux RXN 61 Plasma exchange: CO2 [1]: 582.8 ± 66.5 mmol/g-DNA/2 days
- Flux RXN 62 Plasma exchange: NH4+ [1]: 16.5 ± 1.3 mmol/g-DNA/2 days
- Flux RXN 63 Mitochondrial exchange: Pyruvate [1]: 357.2 ± 37.5 mmol/g-DNA/2 days
- Flux RXN 64 Mitochondrial exchange: Malate in, Citrate out [1]: 101.5 ± 16.0 mmol/g-DNA/2 days
- Flux RXN 65 Mitochondrial exchange: 2-Oxoglutarate in, Malate out [1]: 26.4 ± 6.9 mmol/g-DNA/2 days
- Flux RXN 66 Mitochondrial exchange: Pi in, Malate out [1]: 59.9 ± 9.2 mmol/g-DNA/2 days
- Decrease of flux through phosphoenolpyruvate carboxykinase (phenylacetate): 40%
- Reduction of de novo fatty acid synthesis (phenylacetate): ~40%
- Reduction of triglyceride accumulation (phenylacetate): 40%
- Increase of flux through glycolysis (phenylacetate (5 and 10 mM), day 12 post-induction): 15˜60%
- Decrease of total flux of pyruvate into the mitochondrial reactions (phenylacetate at the higher concentration (10 mM)): 29%
- Decrease of flux through the PPP (phenylacetate, noted only for the 5 mM condition): 83%
- Increase of fluxes through other lipogenic reactions (including esterification) (phenylacetate, higher concentration having the larger effect): 64˜75%
